These results are taken from patent publication US6379959B1, “Metalocarboxypeptidase inhibitors and derived molecules used as antitumor agents” (Universitat Autonoma de Barcelona, priority 1996, dated 2002).

Experiment [1] relates to human pancreatic adenocarcinoma cell line Capan-1. The conditions noted are these: 16 days.
Protocol: Two kinds of tests were carried out; the first one is the treatment of cells of the human pancreatic adenocarcinoma cell line Capan-1 with wtPCI and tail added to the culture medium in absence of serum.
In a culture plate with 96 wells, 5,000 cells were seed per well, in 24 of them. The cells were placed in full medium (DMEM+10%FBS).
In 6 wells (control): 200 μL of serum-free medium (DMEM-FBS) and free of tail were added.
200 μL of serum-free medium with 50 μg/mL of native PCI were added.
In 6 wells, 200 μL of serum-free medium with 0.128 μg of tail/mL were added.
In 6 wells, serum-free medium with 6.4 μg of tail/mL was added.
The medium contained in the wells was changed every 3-4 days. The old medium was sucked out using a Pasteur pipette.
After 16 days, the cell growth per well was evaluated according to the method detailed in the protocol of Section 4.B.2.a.
Experiment [2] shares this test system. Nature of the experiment: Apoptosis by DAPI labeling and fluorescence microscope. Format: cell-based. On the procedure:
The studies of possible induction of apoptosis by the PCI were done with the human pancreatic adenocarcinoma cell line Capan-1. The detailed procedure that was employed is as follows:
1. 5×10^5 cells were seed in the chambers/slides and were cultured for 3 o 4 days (until the moment in which, through microscope observation, they presented 75% of confluence). The cells were cultured in DMEM+10% FBS.
2. […] A positive control was added, cysplatinum, at a concentration of 10 μg/mL (a drug which induces apoptosis in various tumor cell lines, Borner, M. M., et al. (1995) Cancer Res., 55: 2122-2128. The incubation period was 24 h.
3. The medium was removed after incubation and the chamber was washed with 2 mL of PBS.
5. Cells were fixed with 2 mL of 2% formaldehyde for 20 min at 4° C.
6. The plates were washed again with 2 mL of PBS for 5 min at room temperature.
7. Cell membranes were permeabilized with 0.25% Triton ×100 in PBS for 5 min at 4° C.
8. Washed with PBS for 5 min at room temperature.
9. The cells were labeled with DAPI at a final concentration of 2 μg/mL for 50 min in darkness at room temperature.
10. The preparation was fitted with the fluoroprep medium and it was examined through the fluorescence microscope.
% apoptosis=(number of apoptotic cells/total number of cells)×100

Experiment [3] relates to hamster insulinome cell line HIT. Nature of the experiment: Proliferation test by recount of the cells number (hemocytometer), HIT. The conditions noted are these: Postadhesion, 4 days. Format: cell-based. On the procedure:
In this assay and with the aim of determining whether the presence in the culture medium produces some effect on the growth in vitro of the cell lines, the final number of the cells when the control reaches monolayer is determined, in the presence and in the absence of the inhibitor. The calculation is made by direct recount of the number of cells using trypsinization and subsequent recount in a hemocytometer. The detailed method is as follows: 1. In each of the three culture flasks of 25 cm^2, 5×10^5 cells are seed and a total volume of the culture medium is added (DMEM with a 10% of fetal bovine serum or synthetic serum, according to the test) of 5 mL: 2. The cells are maintained in an incubator at 37° C., 87% of relative humidity and 10% of CO2. […] The total number of cells of the W zone of the hemocytometer is counted, differentiating between the live and the dead ones. Based on this recount, the total number of cells that was in the initial suspension (which will be the total number of cells that was in the culture) is calculated by multiplying the number obtained by 2×10^4. The viability (in %) is calculated by dividing the number of live cells by the total number of counted cells and multiplying it by 100. The effect produced by the presence of PCI in the medium is expressed as % of cell growth inhibition, which is calculated according to the formula [formula] […]

Another experiment deals with embryonic cells of mice. The conditions noted are these: PCI in low concentrations (5 μg/mL), in vitro; cited from earlier work.
Experiment [4] has as its system mouse melanoma B16 cell line. The experiment in a line: Metastasis test in vivo, liver metastatic focuses after intrasplenic B16 inoculation. Details: species or system mice C57BL/6J. The conditions noted are these: killed day 11 (control 32±7). How it is done:
In order to study the effect of the PCI on the metastatic capacity of the tumoral cells, mouse melanoma B16 cell line are used used because this line is singeneic with the mice. These cells, intrasplenically inoculated in singeneic mice, after 7 days, start to develop metastasis in the liver of the mouse. The following material was employed:
A control group: consisting of 5 mice to which 300,000 cells dissolved in 0.1 mL of alphaMEM-Hepes were inoculated. The mice, previously anaesthetized with nembutal, were inoculated by way of intrasplenic injection, by means of a little incision and subsequently closed with stitches. These mice were killed 11 days after injection of the tumoral cells by cervical dislocation.
Treatment 1: again, 5 mice were inoculated in the same way as those of the control group. Six days after the injection, a daily treatment with 0.1 mg/mL of PCI in 0.1, mL of PBS by way of intraperitoneal injection was started. The animals were also killed on the eleventh day after the injection.
Treatment 2: in this case, the cells inoculated to the mice (also 5 of them) were previously treated in vitro for 4 days in a concentration of 0.1 mg/mL of PCI. […]
Once killed, their liver was extracted. […] Afterwards, the sections were dyed with hematoxyline-eosine and the number of metastatic focuses was counted.

Positions of bridges follow the written chain, without caps; N, C: chain ends. No end group written: not given here.

In the case of “PCI: potato carboxypeptidase inhibitor, isoform IIa, obtained by recombinant DNA techniques in E. coli (SEQ ID NO.2) (EQHADPICNKPCKTHDDCSGAWFCQACWNSARTCGPYVG; disulfide 12-27, 18-34, 8-24)”, the “Growth (Percentage in relation to the average of the controls)” value in experiment [1] (50 mg/mL wtPCI, serum-free medium) is reported as 107.6%. Moreover, the “growth of Capan-1 cells” value in experiment [1] (wtPCI in serum-free medium) is “not altered”. In addition, the “% Apoptosis” value came to 0.11% in experiment [2] (0,1 mg/mL PCI, 24 h (negative control 0.08)); 0.095% in experiment [2] (10 mg/mL PCI, 24 h); 0.41% in experiment [2] (50 mg/mL PCI, 24 h); 0.038% in experiment [2] (200 mg/mL PCI, 24 h). Moreover, in experiment [2] (PCI 50 μg/mL, 24 h), the “index of apoptosis relative to the control” value came out at 5 times. For the same substance, the figures for the “Percentage of Growth Inhibition” value in experiment [3] (10 mg PCI/mL) and in experiment [3] (50 mg PCI/mL) were 43.0 ± 22.8% and 60.1 ± 28.3%, respectively. For the same substance, the “tumoral transformation induced by irradiation” value in the experiment with embryonic cells of mice is recorded as “inhibits in vitro the tumoral transformation”. Further, the “number of metastatic focuses in liver” value in experiment [4] (treatment 1: daily intraperitoneal 0.1 mg/mL of PCI in 0.1 mL PBS from day 6) is reported as 27 focuses; in experiment [4] (treatment 2: cells treated in vitro 4 days with 0.1 mg/mL of PCI before inoculation), 4±1 focuses.
